What was measured:
[1] = target: T1, BRAF V600E (Homo sapiens, UniProt P15056, V600E); assay: Cellular assay of target protein degradation, T-Rex 293 cells stably transfected with HA-BRAF_V600E (HA immunofluorescence, high content imaging); format: cell-based; details: T-Rex 293 HA-BRAF V600E; for DC50: half maximal degradation, read-out: BRaf V600E DC50; for Dmax: maximum degradation observed
T1 construct: expressed in transfected cells
Method: Protocol for a cellular assay of target protein degradation (T-Rex 293 cells). T-Rex 293 cells were purchased from Invitrogen (#R71007), and stably transfected with a pcDNA4/TO_HA-BRAF_V600E construct, using 400 ug Zeocin for selection. V600e cells are plated in Dulbecco's Modified Eagle Medium (DMEM; Gibco #11965118) containing 10% fetal bovine serum (FBS; Gibco #16000044) and 1 ng/mL doxycycline (Selleckchem #4163) at a density of 5,000 cells/well in 50 μl on poly-D-lysine (PDL) coated, black clear bottom 96-well plates (Corning #354640) and incubated for 24 hours at 37° C. with 5% C02. The following day 50 ul of tested compound was added at 2x concentration in DMEM with a final concentration ranging from 1 μM to 0.1 nM in 0.1% dimethylsulfoxide (DMSO), and incubated for 24 hours at 37° C. with 5% CO2. At the end of the experimental treatment, the media was flicked off and cells washed once with phosphate-buffered saline (PBS)++ (PBS with CaCl and MgCl) and gently replacing with 200 μl PBS++ per well. The PBS++ was removed and 50 uL 4% paraformaldehyde (PFA; EMS #15710) in PBS++ was added, and incubate at room temperature for 15 minutes. Cells were washed once with PBS++ and 50 uL 0.1% Triton X-100 (Fisher #BP151-500) in PBS++ was added. Plate was incubate for 5 minutes at room temperature. Cells were was once with PBS++. Cells were blocked with 100 uL Licor blocking buffer (Licor #927-50000) for 1 hour at room temperature. Next, 50 uL of HA antibody (CST #3724) at 1:1000 in Licor blocking buffer was added, and the plate incubate overnight at 4° C. The plates were parafilmed to prevent evaporation. Plate was washed three times with 200 uL PBS++. Fifty microliters of HCS secondary antibody solution [1:1000 Hoechst (Invitrogen #H3570), 1:1000 phalloidin (Invitrogen #A22287) and 1:5000 Alexa fluor (Invitrogen #A11008)] was added and incubated for 1 hour. Plate was wash three times with 200 uL PBS++, and imaged on a high content reader (ImageXpress Micro XLS, Molecular Devices).
(§1) The concentration of exemplary compound that leads to half maximal degradation (DC50) as well as the maximum degradation observed (Dmax, conventionally expressed as a percentage of control), which are below in Table 2 for the exemplary compounds of Table 1.

[2] = target: T2, BRAF G466V (Homo sapiens, UniProt P15056, G466V); assay: Cellular assay of target protein degradation, T-Rex 293 cells stably transfected with HA-BRAF G466V (HA immunofluorescence, high content imaging); format: cell-based; details: T-Rex 293 HA-BRAF G466V; for DC50: half maximal degradation, read-out: BRaf G466V DC50; for Dmax: maximum degradation observed
T2 construct: expressed in transfected cells
T2 sequence (P15056 whole entry G466V): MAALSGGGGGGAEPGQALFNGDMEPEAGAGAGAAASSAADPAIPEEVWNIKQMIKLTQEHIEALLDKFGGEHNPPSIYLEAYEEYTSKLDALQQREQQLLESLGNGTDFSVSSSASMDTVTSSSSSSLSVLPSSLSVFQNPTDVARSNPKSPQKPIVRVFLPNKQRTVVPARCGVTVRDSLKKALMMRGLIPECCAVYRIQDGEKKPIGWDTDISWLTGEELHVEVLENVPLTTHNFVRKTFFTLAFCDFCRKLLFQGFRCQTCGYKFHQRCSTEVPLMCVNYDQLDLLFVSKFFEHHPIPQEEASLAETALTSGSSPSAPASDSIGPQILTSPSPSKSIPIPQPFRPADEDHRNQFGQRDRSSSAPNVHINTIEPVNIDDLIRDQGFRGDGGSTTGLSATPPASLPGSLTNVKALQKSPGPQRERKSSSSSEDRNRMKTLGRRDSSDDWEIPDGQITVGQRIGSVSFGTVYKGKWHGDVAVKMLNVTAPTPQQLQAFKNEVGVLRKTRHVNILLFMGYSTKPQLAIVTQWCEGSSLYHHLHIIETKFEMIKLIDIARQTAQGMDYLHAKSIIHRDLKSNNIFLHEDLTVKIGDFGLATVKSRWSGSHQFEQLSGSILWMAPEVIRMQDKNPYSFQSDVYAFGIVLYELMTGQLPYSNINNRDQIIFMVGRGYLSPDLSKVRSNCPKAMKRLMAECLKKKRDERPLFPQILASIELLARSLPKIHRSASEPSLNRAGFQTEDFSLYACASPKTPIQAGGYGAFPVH
Method: Protocol for a cellular assay of target protein degradation (T-Rex 293 cells). T-Rex 293 cells were purchased from Invitrogen (#R71007), and stably transfected with a pcDNA4/TO_HA-BRAF G466V construct, using 400 ug Zeocin for selection. G466V cells are plated in Dulbecco's Modified Eagle Medium (DMEM; Gibco #11965118) containing 10% fetal bovine serum (FBS; Gibco #16000044) and 0.75 ng/mL doxycycline (Selleckchem #4163) at a density of 5,000 cells/well in 50 μl on poly-D-lysine (PDL) coated, black clear bottom 96-well plates (Corning #354640) and incubated for 24 hours at 37° C. with 5% CO2. The following day 50 ul of tested compound was added at 2x concentration in DMEM with a final concentration ranging from 30 nM to 3 pM in 0.1% dimethylsulfoxide (DMSO), and incubated for 24 hours at 37° C. with 5% CO2. At the end of the experimental treatment, the media was flicked off and cells washed once with phosphate-buffered saline (PBS)++ (PBS with CaCl and MgCl) and gently replacing with 200 μl PBS++ per well. The PBS++ was removed and 50 uL 4% paraformaldehyde (PFA; EMS #15710) in PBS++ was added, and incubate at room temperature for 15 minutes. Cells were washed once with PBS++ and 50 uL 0.1% Triton X-100 (Fisher #BP151-500) in PBS++ was added. Plate was incubate for 5 minutes at room temperature. Cells were was once with PBS++. Cells were blocked with 100 uL Licor blocking buffer (Licor #927-50000) for 1 hour at room temperature. Next, 50 uL of HA antibody (CST #3724) at 1:1000 in Licor blocking buffer was added, and the plate incubate overnight at 4° C. The plates were parafilmed to prevent evaporation. Plate was washed three times with 200 uL PBS++. Fifty microliters of HCS secondary antibody solution [1:1000 Hoechst (Invitrogen #H3570), 1:1000 phalloidin (Invitrogen #A22287) and 1:5000 Alexa fluor (Invitrogen #A11008)] was added and incubated for 1 hour. Plate was wash three times with 200 uL PBS++, and imaged on a high content reader (ImageXpress Micro XLS, Molecular Devices).
as §1

T1 sequence (P15056 whole entry V600E): as the sequence (P15056 whole entry G466V) above, with V466G, V600E counted along it

SMILES	DC50 [1] [nM]	Dmax [1] [%]	DC50 [2] [nM]	Dmax [2] [%]
O=C1CCC(N2Cc3cc(C4CCN(CC5CC6(C5)CN(c5ccc(-c7cnc8[nH]cc(C(=O)c9c(F)ccc(NS(=O)(=O)N%10CC[C@@H](F)C%10)c9F)c8c7)cn5)C6)CC4)ccc3C2=O)C(=O)N1 (stereo partly drawn) [Compound 103, (3R)-N-[3-(5-{6-[6-({4-[2-(2,6-dioxopiperidin-3-yl)-1-oxo-2,3-dihydro-1H-isoindol-5-yl]piperidin-1-yl}methyl)-2-azaspiro [3.3]heptan-2-yl]pyridin-3-yl}-1H-pyrrolo[2,3-b]pyridine-3-carbonyl)-2,4-difluorophenyl]-3-fluoropyrrolidine-1-sulfonamide]	5 to 50	35 to 70	1 to 10	> 70
COc1cc(N2CC(N3CCN(c4ccc(-c5cnc6[nH]cc(C(=O)c7c(F)ccc(NS(=O)(=O)N8CC[C@@H](F)C8)c7F)c6c5)cc4)CC3)C2)cc2c1C(=O)N(C1CCC(=O)NC1=O)C2 (stereo partly drawn) [Compound 79, (3R)-N-(3-{5-[4-(4-{1-[2-(2,6-dioxopiperidin-3-yl)-7-methoxy-1-oxo-2,3-dihydro-1H-isoindol-5-yl]azetidin-3-yl}piperazin-1-yl)phenyl]-1H-pyrrolo[2,3-b]pyridine-3-carbonyl}-2,4-difluorophenyl)-3-fluoropyrrolidine-1-sulfonamide]	5 to 50	35 to 70	> 30	–
O=C1CC[C@H](N2Cc3cc(OC[C@H](O)CN4CC5(C4)CN(c4ccc(-c6cnc7[nH]cc(C(=O)c8c(F)ccc(NS(=O)(=O)N9CC[C@@H](F)C9)c8F)c7c6)cc4)C5)ccc3C2=O)C(=O)N1 [Compound 123, (3R)—N-[3-[5-[4-[6-[(2R)-3-[2-[(3S)-2,6-dioxo-3-piperidyl]-1-oxo-isoindolin-5-yl]oxy-2-hydroxy-propyl]-2,6-diazaspiro[3.3]heptan-2-yl]phenyl]-1H-pyrrolo[2,3-b]pyridine-3-carbonyl]-2,4-difluoro-phenyl]-3-fluoro-pyrrolidine-1-sulfonamide]	5 to 50	35 to 70	1 to 10	> 70
COc1c(NS(=O)(=O)N2CC[C@@H](F)C2)ccc(F)c1C(=O)c1c[nH]c2ncc(-c3ccc(N4CCC(CN5CCC(c6ccc7c(c6)CN(C6CCC(=O)NC6=O)C7=O)CC5)CC4)cc3)cc12 (stereo partly drawn) [Compound 283, (3R)-N-[3-(5-{4-[4-({4-[2-(2,6-dioxopiperidin-3-yl)-1-oxo-2,3-dihydro-1H-isoindol-5-yl]piperidin-1-yl}methyl)piperidin-1-yl]phenyl}-1H-pyrrolo[2,3-b]pyridine-3-carbonyl)-4-fluoro-2-methoxyphenyl]-3-fluoropyrrolidine-1-sulfonamide]	5 to 50	35 to 70	1 to 10	> 70
O=C1CCC(N2Cc3cc(CCCN4CC5(C4)CN(c4ncc(-c6cnc7[nH]cc(C(=O)c8c(F)ccc(NS(=O)(=O)N9CC[C@@H](F)C9)c8F)c7c6)cn4)C5)ccc3C2=O)C(=O)N1 (stereo partly drawn) [Compound 147, (3R)-N-(3-{5-[2-(6-{3-[2-(2,6-dioxopiperidin-3-yl)-1-oxo-2,3-dihydro-1H-isoindol-5-yl]propyl}-2,6-diazaspiro[3.3]heptan-2-yl)pyrimidin-5-yl]-1H-pyrrolo[2,3-b]pyridine-3-carbonyl}-2,4-difluorophenyl)-3-fluoropyrrolidine-1-sulfonamide]	50 to 500	35 to 70	1 to 10	35 to 70
O=C1CC[C@@H](NC(=O)c2ccc(N3CCN(CCc4ccc(-c5cnc6[nH]cc(C(=O)c7c(F)ccc(NS(=O)(=O)N8CC[C@@H](F)C8)c7F)c6c5)cc4)CC3)cc2F)C(=O)N1 [Compound 28, 4-{4-[2-(4-{3-[2,6-difluoro-3-({[(3R)-3-fluoropyrrolidin-1-yl]sulfonyl}amino)benzoyl]-1H-pyrrolo[2,3-b]pyridin-5-yl}phenyl)ethyl]piperazin-1-yl}-N-[(3R)-2,6-dioxopiperidin-3-yl]-2-fluorobenzamide]	50 to 500	> 70	< 1	35 to 70
CCc1c(NS(=O)(=O)N2CC[C@@H](F)C2)ccc(F)c1C(=O)c1c[nH]c2ncc(-c3ccc(N4CCC(CN5CCC(c6ccc7c(c6)CN(C6CCC(=O)NC6=O)C7=O)CC5)CC4)cc3)cc12 (stereo partly drawn) [Compound 276, (3R)-N-[3-(5-{4-[4-({4-[2-(2,6-dioxopiperidin-3-yl)-1-oxo-2,3-dihydro-1H-isoindol-5-yl]piperidin-1-yl}methyl)piperidin-1-yl]phenyl}-1H-pyrrolo[2,3-b]pyridine-3-carbonyl)-2-ethyl-4-fluorophenyl]-3-fluoropyrrolidine-1-sulfonamide]	< 5	35 to 70	< 1	35 to 70
O=C1CC[C@H](NC(=O)N2CCCc3c(C4CCN(CC5CCN(c6ccc(-c7cnc8[nH]cc(C(=O)c9c(F)ccc(NS(=O)(=O)N%10CC[C@@H](F)C%10)c9F)c8c7)cc6)CC5)CC4)ccnc32)C(=O)N1 [Compound 366, 5-(1-{[1-(4-{3-[2,6-difluoro-3-({[(3R)-3-fluoropyrrolidin-1-yl]sulfonyl}amino)benzoyl]-1H-pyrrolo[2,3-b]pyridin-5-yl}phenyl)piperidin-4-yl]methyl}piperidin-4-yl)-N-[(3S)-2,6-dioxopiperidin-3-yl]-1,2,3,4-tetrahydro-1,8-naphthyridine-1-carboxamide]	5 to 50	35 to 70	1 to 10	> 70
O=C1CCC(N2Cc3cc(N4CC(CN5CCN(Cc6ncc(-c7cnc8[nH]cc(C(=O)c9c(F)ccc(NS(=O)(=O)N%10CC[C@@H](F)C%10)c9F)c8c7)cn6)CC5)C4)ccc3C2=O)C(=O)N1 (stereo partly drawn) [Compound 193, (3R)-N-{3-[5-(2-{[4-({1-[2-(2,6-dioxopiperidin-3-yl)-1-oxo-2,3-dihydro-1H-isoindol-5-yl]azetidin-3-yl}methyl)piperazin-1-yl]methyl}pyrimidin-5-yl)-1H-pyrrolo[2,3-b]pyridine-3-carbonyl]-2,4-difluorophenyl}-3-fluoropyrrolidine-1-sulfonamide]	50 to 500	35 to 70	1 to 10	35 to 70
O=C1CCC(N2Cc3cc(N4CCN(CCCCc5ccc(-c6cnc7[nH]cc(C(=O)c8c(F)ccc(NS(=O)(=O)N9CC[C@@H](F)C9)c8F)c7c6)cc5)CC4)ccc3C2=O)C(=O)N1 (stereo partly drawn) [Compound 317, (3R)-N-(3-{5-[4-(4-{4-[2-(2,6-dioxopiperidin-3-yl)-1-oxo-2,3-dihydro-1H-isoindol-5-yl]piperazin-1-yl}butyl)phenyl]-1H-pyrrolo[2,3-b]pyridine-3-carbonyl}-2,4-difluorophenyl)-3-fluoropyrrolidine-1-sulfonamide]	50 to 500	35 to 70	1 to 10	> 70

Source: patent US12180193B2, “Accelerating fibrosarcoma protein degrading compounds and associated methods of use” (Arvinas Operations, Inc., priority 2020, dated 2024)
